Measured values: patent US20210246128A1, “BICYCLE TOPOISOMERASE I INHIBITING COMPOUNDS, PROCESS FOR PREPARATION AND USE THEREOF” (Council of Scientific & Industrial Research, priority 2018, published 2021)
Values after ≈ are worked out from the molar mass of the structure shown. Where two headings read alike, the source gives them in different places. Each block holds one molecule with its values, some of them ahead of it.

Columns and labels:
[1] = Plasma stability assay; format: in vitro ADME; conditions: pH 7.4, 37° C., 1 μM
Experimental: The stock solution of 10 mM of test compound in DMSO was prepared and stored at 4° C. 25 μM stock of test compound was prepared in acetonitrile: water by diluting from 10 mM stock (i.e. 2.5 μL of 10 mM stock solution was added to 997.5 μL of acetonitrile: water (50:50). The frozen plasma was thawed at room temperature and centrifuged at 1400×RCF (relative centrifugal force) 4° C., for 15 minutes. Approximately 90% of the clear supernatant fraction was transferred to a separate tube and was used for the assay.
For 0 min samples, plasma was heat inactivated at 56° C. for 45 min. To 72 μL of heat inactivated plasma, 3 μL of 25 μM test compound was added. A 25 μL aliquot of the mixture was taken and crashed with 200 μL of acetonitrile containing internal standard and further processed along with other time points. For other time point samples, final working stock of 1 μM was prepared by diluting in plasma (i.e. 8 μL of 25 μM acetonitrile:water stock was added to 192 μL of plasma). 200 μL of plasma containing the test compound was incubated for 2 hrs at 37° C. in shaker water bath with gentle shaking. 25 μL aliquot of sample at 0, 15, 30, 60 and 120 min was precipitated immediately with 200 μL of acetonitrile containing internal standard and centrifuged at 4000×RCF, 4° C. for 20 minutes. 150 μL of supernatant was diluted with 150 μL of water and analyzed on LC-MS/MS.

[2] = biological target: T1, recombinant human TopI (HTopI) (Homo sapiens, UniProt P11387); assay: Gel based plasmid DNA relaxation assay with recombinant TopI (in vitro); format: biochemical; conditions: for inhibition at 10 µM: read-out: In vitro inhibition at 10 μM; for IC50: plasmid DNA relaxation
T1 sequence (P11387 1-765): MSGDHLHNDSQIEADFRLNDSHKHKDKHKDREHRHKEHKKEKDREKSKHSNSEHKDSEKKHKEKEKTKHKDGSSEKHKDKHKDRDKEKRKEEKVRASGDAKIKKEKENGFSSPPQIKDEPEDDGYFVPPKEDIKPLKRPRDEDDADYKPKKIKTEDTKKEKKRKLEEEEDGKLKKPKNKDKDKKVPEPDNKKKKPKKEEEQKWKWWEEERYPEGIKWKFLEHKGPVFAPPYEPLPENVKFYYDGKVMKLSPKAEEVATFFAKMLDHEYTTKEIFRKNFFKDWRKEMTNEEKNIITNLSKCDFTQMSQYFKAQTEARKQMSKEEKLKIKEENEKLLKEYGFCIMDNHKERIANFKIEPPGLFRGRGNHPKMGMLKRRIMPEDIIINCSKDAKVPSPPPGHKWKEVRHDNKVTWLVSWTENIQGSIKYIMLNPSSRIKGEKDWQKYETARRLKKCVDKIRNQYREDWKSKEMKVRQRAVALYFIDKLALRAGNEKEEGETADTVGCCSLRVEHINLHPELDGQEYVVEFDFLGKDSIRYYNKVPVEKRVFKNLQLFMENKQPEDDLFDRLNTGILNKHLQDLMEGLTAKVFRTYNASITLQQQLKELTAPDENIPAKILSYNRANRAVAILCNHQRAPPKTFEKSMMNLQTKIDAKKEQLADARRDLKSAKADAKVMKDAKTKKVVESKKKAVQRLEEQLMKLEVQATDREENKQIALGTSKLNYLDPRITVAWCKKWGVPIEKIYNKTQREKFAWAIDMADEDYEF
Experimental: (§1) Human ToPI Inhibition in Plasmid DNA Relaxation Assays with Recombinant TopI (In Vitro) or MCF7 Cell Lysates (Ex Vivo)
(§2) Relaxation of supercoiled pBSSK(^+) DNA with recombinant human TopI (HTopI) at a molar ratio of 3:1 at 37° C. for 30 minutes was performed

[3] = biological target: T2, endogenous TopI from the whole cell extracts of human breast adenocarcinoma (MCF7) cell (Homo sapiens, UniProt P11387); assay: Plasmid DNA relaxation assay with MCF7 cell lysates (ex vivo); format: biochemical; conditions: MCF7 cell lysates as source of TopI
T2 construct: TopI enzyme in the extract is conserved in its native structure among a plethora of other cellular proteins; endogenous in cells; host or cells: MCF7 whole cell extract
T2 sequence (P11387 1-765): T1 sequence (P11387 1-765)
Experimental: as §1, §2
cellular extracts were utilized as a source of TopI (ex vivo) in plasmid DNA relaxation assays. TopI enzyme in the extract is conserved in its native structure among a plethora of other cellular proteins.

[4] = Lipophilicity assay (octanol/buffer Log D); conditions: octanol / sodium phosphate buffer pH 7.4
Experimental: 1.56 g NaH2PO4.2H2O was dissolved in 0.5 L water in a 1 L beaker. After adjusting pH to 7.4 using NaOH solution, the volume was made up to 1 L. Equal volumes of sodium phosphate buffer (10 mM, pH 7.4) and n-octanol were added to a separation funnel and mixed thoroughly by shaking and inverting the funnel several times. The two layers were allowed to separate for 2 days and then dispensed in two separate glass bottles. 10 mM stock solution was prepared in 100% DMSO and stored at 4° C. 500 μL of organic phase (1-octanol) was added to each well of a 2 mL deep well plate, followed by 500 μL of buffer and 15 μL of test substance was added. The plate was vortexed for 1 hr on a plate shaker at 1200 rpm. After incubation, the samples were allowed to equilibrate for 20 min and then centrifuged at 4000 rpm for 30 min for complete phase separation and analysed by LC-UV.
Log D=Log(area of octanol/area of buffer)
Mean, SD and % CV for each set of triplicates were calculated

[5] = Solubility assay (pH 7.4 pION buffer, UV); format: physicochemical; conditions: pH 7.4 pION buffer, aqueous buffer, kinetic from dmso stock; pH 7.4 buffer, 18 hours incubation; read-out: Avg. Solubility (μg/mL) at pH 7.4
Experimental: 5 μL of 20 mM DMSO stock from the stock plate was added to the reaction deep well plate containing 495 μL of pH 7.4 pION buffer (including DMSO control) respectively and the samples were mixed and incubated for 18 hours. The plate was sealed well during the incubation process. The DMSO content in the sample was <1.0%. The concentration in deep well plates was 200 μM. 4 μL of 20 mM stock (including DMSO control) was added to 996 μL of acetonitrile to prepare the working stock plate. 75 μL of working stock was added to 75 μL of blank buffer and read on spectrophotometer as reference plate at 240 nm. At the end of the incubation period, 100 μL of sample from storage plate was vacuum filtered using a filter plate. This step wets the filters and the filtrate was discarded. Another 200 μL of the sample from deep well plate was vacuum filtered in to a new filter collection plate. 75 μL of the filtrate from the filter collection plate was transferred to a UV sample plate. 75 μL of acetonitrile was added to this UV plate. The solution was mixed and the spectrum was read using the UV spectrophotometer at 240 nm. Plates were read on spectramax using SoftMax Pro software version 5.3.

[6] = Caco-2 permeability (21 day culture of Caco-2 cell monolayer); format: in vitro ADME; conditions: human; for recovery at 120 min, 10 μM: Caco-2, pH 7.4, Caco-2; for Papp A→B at 120 min, 10 μM / Papp B→A at 120 min, 10 μM: pH 7.4, Caco-2, 10 μM; for Papp A→B at 120 min, 10 μM: read-out: Papp Apical to Basal; for Papp B→A at 120 min, 10 μM: read-out: Papp Basal to Apical
Experimental: 5 mL of 100 mM sodium pyruvate, 5 mL of 10× non-essential amino acids, 5 mL of penstrep were added to 100 mL of heat inactivated foetal bovine serum to 385 mL of DMEM aseptically and mixed thoroughly. One vial of Hank's balanced salt (Sigma-H1387) was dissolved in 900 mL of milli Q water; adjusted the pH to 7.4 and made up the volume to 1000 mL with the same. The solution was filter sterilized and stored at 4° C. Stock solution of test compound (10 mM) was prepared in DMSO. 10 mM stock was diluted with HBSS Buffer to a final concentration of 10 μM.
250 μL of DMEM was added to the basal compartment of 96 well multi-screen Caco-2 plate and seeded 12000 cells/well (0.16×10^6 cells/ml) in all the apical wells required and one well with only media as blank without cells, placed the Caco-2 plate in CO2 incubator at 37° C. for proliferation of cells.
On the day of assay, medium was removed and washed twice with HBSS Buffer and incubated with HBSS buffer for 30 min in an incubator and wells with TEER values >230 ohm·cm^2 were selected for the incubation. 75 μL of test compound was added to apical wells and 250 μL of HBSS buffer with 2% BSA was added to basal wells. 25 μL of basal samples was collected at 120 min and processed as stated below.
250 μL of test compound was added to basal wells and 75 μL of HBSS buffer with 2% BSA was added to apical wells. 25 μL of apical samples was collected at 120 min and processed as stated below.
Single point calibration curve in HBSS buffer with 2% BSA was used. Donor samples were diluted 1:1 with HBSS containing 2% BSA and receiver samples were diluted with 1.1 HBSS buffer and precipitated with 200 μL of acetonitrile containing internal standard and vortexed for 5 min @ 1000 rpm, centrifuged at 4000 rpm for 10 min. Finally 100 μL of supernatant was diluted with 200 μL of water and submitted for LC-MS/MS analysis.

[7] = recombinant human TopI, at 10 μM

Molecule: Topotecan [reference compound]
Mean % remaining at 2 hrs in human Plasma [1]: 11.5%

Molecule: COCCc1ccc(OCC(O)CNC(C)C)cc1 (stereo not drawn) [Metoprolol, reference compound]
Log D @ pH 7.40 Mean [4]: −0.29

Molecule: CC(C)[N+](C)(CCOC(=O)C1c2ccccc2Oc2ccccc21)C(C)C [Propantheline, reference compound]
Mean % remaining at 2 hrs in human Plasma [1]: 0.00%

Molecule: CC(C(=O)O)c1ccc(-c2ccccc2)c(F)c1 (stereo not drawn) [Flurbiprofen, reference compound]
solubility at 18 h [5]: 54 µg/mL (≈ 221 µM)

Molecule: CCCSc1ccc2nc(NC(=O)OC)[nH]c2c1 [Albendazole, reference compound]
solubility at 18 h [5]: 3.31 µg/mL (≈ 12.5 µM)

Molecule: CC(C)NCC(O)COc1cccc2ccccc12 (stereo not drawn) [Propranolol, reference compound]
recovery at 120 min, 10 μM ([6]; read-out: A to B % Recovery): 68%
recovery at 120 min, 10 μM ([6]; read-out: B to A % Recovery): 72.7%
Papp A→B at 120 min, 10 μM [6]: 19.1 ×10⁻⁶ cm/s
Papp B→A at 120 min, 10 μM [6]: 13.3 ×10⁻⁶ cm/s

Molecule: Nc1ccc(-c2ccc3ncc(-c4nnco4)c(NCCCn4ccnc4)c3c2)cc1 [Compound 20, N-(3-(1H-imidazol-1-yl)propyl)-6-(4-aminophenyl)-3-(1,3,4-oxadiazol-2-yl)quinolin-4-amine]
Mean % remaining at 2 hrs in human Plasma [1]: 91.32%
recovery at 120 min, 10 μM ([6]; read-out: A to B % Recovery): 72.7%
recovery at 120 min, 10 μM ([6]; read-out: B to A % Recovery): 91.7%
Papp A→B at 120 min, 10 μM [6]: 0.63 ×10⁻⁶ cm/s
Papp B→A at 120 min, 10 μM [6]: 44.2 ×10⁻⁶ cm/s
Log D @ pH 7.40 Mean [4]: 2.56
IC50 [3]: 2250 nM
IC50 ([2]; recombinant human TopI): 24 nM

Molecule: CCOC(=O)c1cnc2ccc(Br)cc2c1NCCCn1ccnc1 [Compound 15, ethyl 4-((3-(1H-imidazol-1-yl)propyl)amino)-6-bromoquinoline-3-carboxylate]
inhibition at 10 µM [2, 7]: 30%

Molecule: COc1ccc(-c2ccc3ncc(-c4nnc(N)o4)c(NCCCn4ccnc4)c3c2)cc1 [Compound 52, 5-(4-(3-(1H-imidazol-1-yl)propylamino)-6-(4-methoxyphenyl)quinolin-3-yl)-1,3,4-oxadiazol-2-amine]
inhibition at 10 µM [2]: 45%

Molecule: Cc1ccc(-c2ccc3ncc(-c4nnco4)c(NCCCn4ccnc4)c3c2)cc1 [Compound 29, N-(3-(1H-imidazol-1-yl)propyl)-3-(1,3,4-oxadiazol-2-yl)-6-p-tolylquinolin-4-amine]
IC50 [3]: 3750 nM
IC50 ([2]; recombinant human TopI): 1060 nM

The next lines start with the values.

inhibition at 10 µM [2, 7]: 50%
Molecule: COc1ccc(-c2ccc3ncc(-c4nnc(C)o4)c(NCCN4CCOCC4)c3c2)cc1 [Compound 14, 6-(4-methoxyphenyl)-3-(5-methyl-1,3,4-oxadiazol-2-yl)-N-(2-morpholinoethyl)quinolin-4-amine]

IC50 [3]: 3000 nM
IC50 ([2]; recombinant human TopI): 2360 nM
Molecule: COc1ccc(-c2ccc3ncc(-c4nnco4)c(NCCCn4ccnc4)c3c2)cc1C [Compound 28, N-(3-(1H-imidazol-1-yl)propyl)-6-(4-methoxy-3-methylphenyl)-3-(1,3,4-oxadiazol-2-yl)quinolin-4-amine]

inhibition at 10 µM [2, 7]: 35%
Molecule: CCOC(=O)c1cnc2ccc(-c3ccc(OC)cc3)cc2c1NCCCn1ccnc1 [Compound 78, ethyl 4-((3-(1H-imidazol-1-yl)propyl)amino)-6-(4-methoxyphenyl)quinoline-3-carboxylate]

inhibition at 10 µM [2, 7]: 20%
Molecule: CNc1c(-c2nnco2)cnc2ccc(-c3ccc(OC)cc3)cc12 [Compound 77, 6-(4-methoxyphenyl)-N-methyl-3-(1,3,4-oxadiazol-2-yl)quinolin-4-amine]

IC50 ([2]; recombinant human TopI): 5240 nM
Molecule: COc1ccc(-c2ccc3ncc(-c4ccc(N)nc4)c(NCCCn4ccnc4)c3c2)cc1 [Compound 73, N-(3-(1H-imidazol-1-yl)propyl)-3-(6-aminopyridin-3-yl)-6-(4-methoxyphenyl)quinolin-4-amine]

inhibition at 10 µM [2, 7]: 30%
Molecule: Brc1ccc2ncc(-c3nnco3)c(NCCCn3ccnc3)c2c1 [Compound 17, N-(3-(1H-imidazol-1-yl)propyl)-6-bromo-3-(1,3,4-oxadiazol-2-yl)quinolin-4-amine]

inhibition at 10 µM [2, 7]: 55%
Molecule: COc1ccc(-c2ccc3ncc(-c4nnc(C)o4)c(NCCCn4ccnc4)c3c2)cc1 [Compound 54, N-(3-(1H-imidazol-1-yl)propyl)-6-(4-methoxyphenyl)-3-(5-methyl-1,3,4-oxadiazol-2-yl)quinolin-4-amine]

inhibition at 10 µM [2, 7]: 45%
Molecule: COc1ccc(-c2ccc3ncc(-c4nnco4)c(NCCCn4ccnc4)c3c2)c(OC)c1 [Compound 27, N-(3-(1H-imidazol-1-yl)propyl)-6-(2,4-dimethoxyphenyl)-3-(1,3,4-oxadiazol-2-yl)quinolin-4-amine]

Mean % remaining at 2 hrs in human Plasma [1]: 83.38%
recovery at 120 min, 10 μM ([6]; read-out: A to B % Recovery): 42.6%
recovery at 120 min, 10 μM ([6]; read-out: B to A % Recovery): 58.5%
Papp A→B at 120 min, 10 μM [6]: 10.9 ×10⁻⁶ cm/s
Papp B→A at 120 min, 10 μM [6]: 11 ×10⁻⁶ cm/s
Log D @ pH 7.40 Mean [4]: 3.26
Molecule: COc1ccc(-c2ccc3ncc(-c4nnco4)c(NCCCN4CCOCC4)c3c2)cc1 [Compound 43, 6-(4-methoxyphenyl)-N-(3-morpholinopropyl)-3-(1,3,4-oxadiazol-2-yl)quinolin-4-amine]
